Experimental findings from patent US20260250320A1, “LIPIDATED PEPTIDE INHIBITORS OF INTERLEUKIN-23 RECEPTOR” (Janssen Pharmaceutica NV, priority 2023, published 2026) are described below.

*1 amine or outer side, *2 acyl side, *3 side chain or, on linkers, in order; H or OH if unused. Where a SMILES comes first, the peptide text is derived from it. Bridges are numbered along the chain shown (N, C = ends). Side-chain parts run from the residue outwards. [ ]: non-standard residue; d: D form. The star is where a group is joined. X32 = O=C(O)CCCCCCCCCCCCCCCCC(=O)N[C@@H](CCC(=O)NCCOCCOCCOCCOCCOCCOCCOCCOCCOCCOCCOCCCOCCC(=O)*)C(=O)O; X13 = O=C(O)CCCCCCCCCCCCCCCCC(=O)NCCOCCOCCOCCOCCOCCOCCOCCOCCOCCOCCOCCOCC(=O)*; Me3N+CH2CH2(OCH2CH2)4CO = C[N+](C)(C)CCOCCOCCOCCOCCC(=O)*; PEG12 = NCCOCCOCCOCCOCCOCCOCCOCCOCCOCCOCCOCCOCCC(=O)O; Trp(7-Me,2,3-dihydro) = Cc1cccc2c1NCC2C[C@H](N)C(=O)O; Trp(7-Me) = Cc1cccc2c(C[C@H](N)C(=O)O)c[nH]c12; C20 diacid = O=C(O)CCCCCCCCCCCCCCCCCCC(=O)*; C18 diacid = O=C(O)CCCCCCCCCCCCCCCCC(=O)*; X6 = CN(CC[C@H](N[*:1])C(=O)[*:2])[*:3]; γGlu = O=C(O)[C@H](CCC(=O)[*:2])N[*:1]; 2Nal = N[C@@H](Cc1ccc2ccccc2c1)C(=O)O; AEF = NCCOc1ccc(C[C@H](N)C(=O)O)cc1; X2 = C[N+](C)(C)C[C@@H](CC(=O)O)N*; 3Pal = N[C@@H](Cc1cccnc1)C(=O)O; NMeK = CN[C@@H](CCCCN)C(=O)O; Pen = CC(C)(S)[C@H](N)C(=O)O; Suc = O=C(CCC(=O)[*:2])[*:1]; Thp = NC1(C(=O)O)CCOCC1; AEEA = NCCOCCOCC(=O)O; Sar = CNCC(=O)O

One test addresses T1, IL-23R (Homo sapiens, UniProt Q5VWK5).
T1 construct: HEK293 cells containing IL-23R, IL-12Rβ1 and a firefly luciferase reporter gene driven by a STAT-inducible promoter (Promega); host or cells: HEK293
T1 sequence (Q5VWK5 24-629): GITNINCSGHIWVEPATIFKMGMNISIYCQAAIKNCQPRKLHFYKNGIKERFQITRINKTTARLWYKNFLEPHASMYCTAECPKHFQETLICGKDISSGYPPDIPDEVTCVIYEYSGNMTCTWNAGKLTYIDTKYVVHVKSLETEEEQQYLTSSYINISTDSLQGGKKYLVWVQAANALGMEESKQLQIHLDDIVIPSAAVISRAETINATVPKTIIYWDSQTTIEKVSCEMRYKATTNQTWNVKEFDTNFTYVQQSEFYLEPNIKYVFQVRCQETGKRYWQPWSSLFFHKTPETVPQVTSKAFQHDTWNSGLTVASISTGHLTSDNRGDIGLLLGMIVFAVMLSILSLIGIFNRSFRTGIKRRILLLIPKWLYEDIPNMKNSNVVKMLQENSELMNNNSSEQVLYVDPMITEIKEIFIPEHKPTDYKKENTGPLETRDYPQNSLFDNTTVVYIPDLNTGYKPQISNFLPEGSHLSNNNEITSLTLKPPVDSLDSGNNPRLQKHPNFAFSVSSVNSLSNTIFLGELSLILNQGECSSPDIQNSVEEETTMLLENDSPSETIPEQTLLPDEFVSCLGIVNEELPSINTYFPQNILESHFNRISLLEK
As to the kind of experiment: IL23R Reporter Assay. Format: cell-based. The conditions noted are these: HEK293 cells containing IL-23R, IL-12Rβ1 and STAT-inducible firefly luciferase reporter; 10 ng/mL IL-23 (EC90); 5 h. In a few lines:
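IC50 values were fitted with a 4-parameter Hill equation to luciferase signal, scaled between IL-23-only wells (0% inhibition) and 30 μM reference inhibitor (100%). The readout was a STAT-inducible reporter in IL-23R/IL-12Rβ1 HEK293 cells, stimulated with added 10 ng/mL IL-23 (EC90) for 5 h at 37° C and developed with BioGlo.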

For test [1], the system named is IL-23-stimulated phosphorylated STAT3 in peripheral blood mononuclear cells (PBMCs). As to the kind of experiment: PBMC pSTAT3 Assay. Format: cell-based. To be noted: PBMCs from healthy donors; 30 min preincubation with peptide; IL-23 5 ng/mL for 30 min; phospho-STAT3 by MSD. In a few lines:
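Phospho-STAT3 quantified by Meso Scale assay in lysates of PBMCs exposed to IL-23 (5 ng/mL, 30 min, 37 °C) after 30 min peptide pretreatment. Cells were cryopreserved donor PBMCs activated 4 days with anti-CD3 plus IL-1β (100 ng/mL) and starved ~4 h; IC50 reported.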

For `CC(=O)NCCCC[C@@H]1NC(=O)[C@H](Cc2c[nH]c3c(C)cccc23)NC(=O)[C@H]([C@@H](C)O)NC(=O)[C@H](CC(N)=O)NC(=O)[C@@H](NC(=O)[C@@H](CCCNC(=N)N)NC(C)=O)C(C)(C)SSC(C)(C)[C@@H](C(=O)N[C@@H](Cc2ccc(OCCN)cc2)C(=O)N[C@@H](Cc2ccc3ccccc3c2)C(=O)NC2(C(=O)N[C@@H](CCC(=O)O)C(=O)N[C@@H](CC(N)=O)C(=O)N[C@@H](Cc3cccnc3)C(=O)N(C)CC(=O)N[C@@H](CCCCNC(=O)CCOCCCOCCOCCOCCOCCOCCOCCOCCOCCOCCOCCOCCNC(=O)CC[C@H](NC(=O)CCCCCCCCCCCCCCCCC(=O)O)C(=O)O)C(N)=O)CCOCC2)NC1=O` [compound 133, MeCO-r-Pen(3)-N-T-7MeW-K(Ac)-Pen(3)-AEF-2Nal-THP-E-N-3Pya-Sar-K(PEG12gEC18OH)-CONH2] (Ac-[dR][Pen]NT[Trp(7-Me)]K(Ac)[Pen][AEF][2Nal][Thp]EN[3Pal][Sar]K(X32)-NH2; disulfide 2-7), the results for the IC50 (on IL-23R; in test [1]) were under 50 nM and under 0.5 nM, respectively.
In the case of `CC(=O)NCCCC[C@@H]1NC(=O)[C@H](Cc2c[nH]c3c(C)cccc23)NC(=O)[C@H]([C@@H](C)O)NC(=O)[C@H](CC(N)=O)NC(=O)[C@@H](NC(=O)[C@@H](CCCNC(=N)N)NC(C)=O)C(C)(C)SSC(C)(C)[C@@H](C(=O)N[C@@H](Cc2ccc(OCCN)cc2)C(=O)N[C@@H](Cc2ccc3ccccc3c2)C(=O)NC2(C(=O)N[C@@H](CCC(=O)O)C(=O)N[C@@H](CC(N)=O)C(=O)N[C@@H](Cc3cccnc3)C(=O)N(C)CC(=O)N[C@@H](CCCCNC(=O)CCOCCOCCOCCOCCOCCOCCOCCOCCOCCOCCOCCOCCNC(=O)CC[C@H](NC(=O)CCCCCCCCCCCCCCCCCCC(=O)O)C(=O)O)C(N)=O)CCOCC2)NC1=O` [compound 134, MeCO-r-Pen(3)-N-T-7MeW-K(Ac)-Pen(3)-AEF-2Nal-THP-E-N-3Pya-Sar-K(PEG12gEC20OH)-CONH2] (Ac-[dR][Pen]NT[Trp(7-Me)]K(Ac)[Pen][AEF][2Nal][Thp]EN[3Pal][Sar]K([PEG12-γGlu-C20 diacid])-NH2; disulfide 2-7), the IC50 on IL-23R is under 50 nM; in test [1] it was under 0.5 nM.
`Cc1cccc2c1NCC2C[C@@H]1NC(=O)[C@H]([C@@H](C)O)NC(=O)[C@H](CC(=O)N(C)C)NC(=O)[C@@H](NC(=O)CCOCCOCCOCCOCC[N+](C)(C)C)C(C)(C)SSC(C)(C)[C@@H](C(=O)N[C@@H](Cc2ccc(OCCN)cc2)C(=O)N[C@@H](Cc2ccc3ccccc3c2)C(=O)NC2(C(=O)N[C@@H](CCC(=O)O)C(=O)N[C@@H](CC(N)=O)C(=O)N[C@@H](Cc3cccnc3)C(=O)N(C)[C@@H](CCCCNC(=O)COCCOCCOCCOCCOCCOCCOCCOCCOCCOCCOCCOCCNC(=O)CCCCCCCCCCCCCCCCC(=O)O)C(N)=O)CCOCC2)NC(=O)[C@H](CCN(C)C(=O)CCOCCOCCOCCOCC[N+](C)(C)C)NC1=O` (some centres unmarked) [compound 136, cPEG5aCO-Pen(3)-N(N(Me)2)-T-7MeW-Dab(NMecPEG5a)-Pen(3)-AEF-2Nal-THP-E-N-3Pya-NMeK(PEG12C18OH)-CONH2] ({Me3N+CH2CH2(OCH2CH2)4CO}-[Pen]D(NMe2)T[Trp(7-Me,2,3-dihydro)][X6](Me3N+CH2CH2(OCH2CH2)4CO)[Pen][AEF][2Nal][Thp]EN[3Pal][NMeK](X13)-NH2; disulfide 1-6): the IC50 against IL-23R was in the range of 50 to 500 nM; in test [1] it was 0.5 to 5 nM.
For the compound `Cc1cccc2c(C[C@@H]3NC(=O)[C@H]([C@@H](C)O)NC(=O)[C@H](CC(=O)N(C)C)NC(=O)[C@@H](NC(=O)COCCOCCNC(=O)COCCOCCNC(=O)CC[C@H](NC(=O)CCCCCCCCCCCCCCCCC(=O)O)C(=O)O)C(C)(C)SSC[C@@H](C(=O)N[C@@H](Cc4ccc(OCCN)cc4)C(=O)N[C@@H](Cc4ccc5ccccc5c4)C(=O)NC4(C(=O)N[C@@H](CCN(C)C(=O)CCC(=O)N[C@H](CC(=O)O)C[N+](C)(C)C)C(=O)N[C@@H](CC(N)=O)C(=O)N[C@@H](Cc5cccnc5)C(=O)N(C)CC(=O)N(C)C)CCOCC4)NC(=O)[C@H](CCN(C)C(=O)CCC(=O)N[C@H](CC(=O)O)C[N+](C)(C)C)NC3=O)c[nH]c12` [compound 138, HOC18gEPEG2PEG2CO-Pen(3)-N(N(Me)2)-T-7MeW-Dab(NMecarn)-Pen(3)-AEF-2Nal-THP-Dab(NMecarn)-N-3Pya-Sar-CON(Me)2] ({C18 diacid-γGlu-AEEA-AEEA}-[Pen]D(NMe2)T[Trp(7-Me)][X6]([Suc-X2])C[AEF][2Nal][Thp][X6]([Suc-X2])N[3Pal][Sar]-NMe2; disulfide 1-6), the results for the IC50 (against IL-23R; in test [1]) were under 50 nM and under 0.5 nM, respectively.
